Data as given in publication PMC11767297, “6-Bromoindole- and 6-Bromoindazole-Based Inhibitors of Bacterial Cystathionine γ-Lyase Containing 3-Aminothiophene-2-Carboxylate Moiety” (Molecules, 2025).
Like-named read-outs stand apart in the source and are kept apart here. One block for each compound: values may come before it.

How the values were obtained:
bCSE [1] = system: bCSE; set-up: method as in PMID 34112687, PMID 37110802, doi:10.1016/j.mencom.2024.02.030, PMID 39970094, PMID 38771206; conditions: Figure 1; cited from earlier work
hCSE [2] = system: hCSE; set-up: method as in PMID 34112687, PMID 37110802, doi:10.1016/j.mencom.2024.02.030, PMID 39970094, PMID 38771206; conditions: Figure 1; cited from earlier work
bCSE [3] = conditions: cited from earlier work
B. subtilis 168 strain [4] = assay: Kanamycin A-potentiating activity, growth curves; type: cell-based, Bacillus subtilis; conditions: potentiator concentration in the presence of 0.25 µg Km (MICKm = 2 µg/mL); potentiator varied with an interval of 10 μM
Method: The potentiating properties and minimum inhibitory concentration (MIC) were assessed similarly to the testing with gentamicin, and additionally, the previously reported MNS1 was used for comparison (Figure 3). The MIC of kanamycin A for B. subtilis cells is 2 μg/mL. […] A lower cytotoxic effect on HEK273T culture (Table 1) allows us to conclude that MNS3 is the hit compound in the series (the experimental curves for CC50 estimation via the MTT test are given in the Supplementary Information File).
(§1) Gentamicin-potentiating activity testing of the compounds in B. subtilis. The growth curves of B. subtilis were obtained with a Bioscreen C automated growth curve analysis system (Oy Growth Curves Ab, Finland, Helsinki). The B. subtilis strain 168 was grown overnight in LB at 37 °C and diluted with fresh medium (1:100) containing the antibiotic and a test compound as specified in the text and figure captions. Aliquots (150 μL) of each mixture were added into plate wells in triplicate and incubated with continuous agitation at 37 °C. The optical density at 600 nm (OD600) was recorded automatically for 24 h. The results were averaged over three replicate experiments to plot the time dependences of bacterial growth.
Figure 3 Determination of the potentiating properties of compounds.

MTT test, cytotoxicity = type: cell-based; conditions: human, HEK293T cells; MTT test, 72 h; concentration required to inhibit 50% cell culture growth; read-out: CC50 of compounds (HEK273T)
Method: (§2) HEK293T cells were grown in the DMEM:F12 (2:1) medium supplemented with 10% FBS (BioSera, Cholet, France), 2 mM L-glutamine, 100 U/mL penicillin and 100 μg/mL streptomycin in the presence of 5% CO2 at 37 °C. Cells were re-seeded every three days at a ratio of 1:3 or 1:5.
(§3) Stock solutions were diluted in DMSO (BioReagent of molecular biology grade, Sigma, St. Louis, MO, USA), and the final DMSO concentration was 1%. After 24 h (30–40% monolayer), the solutions of the studied compounds diluted at different concentrations were introduced to the culture medium. After the incubation at 37 °C in 5% CO2 for 72 h, a freshly prepared solution of thiazolyl blue tetrazolium bromide at a final concentration of 0.4 mg/mL was added to each well of the plate. Incubation was performed at +37 °C for 2 h. The medium containing unreacted MTT was removed via aspiration. The formed formazan dye was dissolved in 100 µL of isopropanol added to each well of the plate. The result of the analysis was evaluated using a Tecan Spark spectrophotometer (absorbance at 544 nm).

B. subtilis 168 strain [5] = system: B. subtilis 168 strain; set-up: method as in PMID 39970094; conditions: parent MNS1, in the presence of 0.1 µg Gm; previously known data for gentamicin potentiation; cited from earlier work
hCSE [6] = target: hCSE; set-up: method as in PMID 34112687, PMID 37110802, doi:10.1016/j.mencom.2024.02.030, PMID 39970094, PMID 38771206; conditions: Figure 1; cited from earlier work; remark: listed apart in the source
B. subtilis 168 strain [7] = assay: Gentamicin-potentiating activity, growth curves (Bioscreen C); type: cell-based, Bacillus subtilis; conditions: for MIC with Gm (B. subtilis): potentiator concentration in the presence of 0.1 µg Gm (0.1 MIC; MICGm = 1 µg/mL), potentiator varied with an interval of 10 μM
Method: We selected the B. subtilis 168 strain as the model micro-organism to determine the potentiating properties of the new compounds. The active center of the proposed target protein, cystathionine γ-lyase, has a conservative structure for a wide range of micro-organisms, including pathogens; thus, B. subtilis can be used as a less toxic model object containing the CGL enzyme for testing. The efficiency of CGL inhibitors was assessed by the standard minimum inhibitory concentration (MIC) assay. The potentiating properties were investigated according to the technique reported previously for NL2 [10]. The MIC of gentamicin for B. subtilis cells is 1 μg/mL, which is consistent with known CLSI breakpoints for the genus Bacillus. […] In addition, we tested the effect of the compounds on the generation of hydrogen sulfide by the B. subtilis cell culture (Figure 2F). […] The latter effect, however, may be attributed to the presence of the sulfur atom in the structure of these inhibitors assuming their possible hydrolysis if not bound to the enzyme in the cellular environment.
as §1
Figure 2 Determination of the potentiating properties of compounds. Representative growth curves of B. subtilis 168 strain in the presence of 0.1 μg/mL gentamicin (Gm) and potentiators: MNS2 (A), MNS3 (B), MNS4 (C), MNS5 (D) and MNS6 (E). The cells were grown at 37 °C with aeration in a Bioscreen C automated growth assay system. The curves represent the mean values of three independent experiments with an error of <5%. Evaluation of hydrogen sulfide production by B. subtilis 168 cells in the presence of the potentiators studied (F): MNS2 (100 µM), MNS3 (90 µM), MNS4 (60 µM), MNS5 (60 µM) and MNS6 (100 µM). The filter paper strips soaked in 2% lead acetate solution show brown staining with PbS salt as a result of H2S evaporation by the bacterial suspension. The numbers indicate H2S production relative to wild-type cells. […]

HEK273T = assay: MTT test, cytotoxicity; type: cell-based; conditions: in words, conclusions
Method: as §2, §3

[8] = system: hydrogen sulfide production by B. subtilis 168 cells; assay: Hydrogen sulfide generation, lead acetate paper strips; type: cell-based, Bacillus subtilis; conditions: B. subtilis cell culture, Figure 2F
Method: The generation of hydrogen sulfide in B. subtilis cells was monitored according to the published protocol using lead acetate as a colorimetric sensor [29]. The inner surface of a cell culture flask was equipped above the level of the liquid with a standardized paper strip soaked with 2% aq. Pb(OAc)2. Overnight cultures were diluted with LB (1:50) and incubated at 37 °C under aeration conditions for 16–18 h. The test compounds (MNS1 and NL2) were used at 32 μM; LB without supplements was used as a negative control. Paper strips stained with the formed PbS precipitate were scanned using an AlphaImager gel imaging system (BioTechne, USA, Minneapolis, Minnesota). The results were normalized to the optical density of the culture.
Figure 2 Determination of the potentiating properties of compounds. Representative growth curves of B. subtilis 168 strain in the presence of 0.1 μg/mL gentamicin (Gm) and potentiators: MNS2 (A), MNS3 (B), MNS4 (C), MNS5 (D) and MNS6 (E). The cells were grown at 37 °C with aeration in a Bioscreen C automated growth assay system. The curves represent the mean values of three independent experiments with an error of <5%. Evaluation of hydrogen sulfide production by B. subtilis 168 cells in the presence of the potentiators studied (F): MNS2 (100 µM), MNS3 (90 µM), MNS4 (60 µM), MNS5 (60 µM) and MNS6 (100 µM). The filter paper strips soaked in 2% lead acetate solution show brown staining with PbS salt as a result of H2S evaporation by the bacterial suspension. The numbers indicate H2S production relative to wild-type cells. TEXT PRINTED IN THE PICTURE: (F) MNS2: 100% | (F) MNS3: >120% | (F) MNS4: >120% | (F) MNS5: <35% | (F) MNS6: <35% DOUBTS OF THE COPYIST ABOUT THIS PICTURE: Panel F: the picture prints no measure for the percentages, so they are given without one. / Panel F: the column "Control" (100%) is left out because it is not a substance.

B. subtilis cells = assay: MIC of the antibiotic alone, microdilution method (CLSI); type: cell-based, Bacillus subtilis
Method: Standardized MIC was determined using the microdilution method, as recommended by the Clinical and Laboratory Standards Institute (CLSI). […] The B. subtilis inoculate (100 μL) contained 1.0 × 10^6 CFU/mL. The minimum inhibitory concentration (MIC) was defined as the lowest antibiotic concentration that prevented turbidity in the inoculate following incubation at 37 °C for a duration of 24 h. Gentamycin was used at 0.1 μg/mL (10% of MIC) in further experiments.

Compound: Cc1oc(Cn2ccc3ccc(Br)cc32)cc1C(=O)O [NL2]
- IC50 (bCSE [1]): 1.8 ± 0.5 µM
- IC50 (hCSE [2]): 25.3 ± 2.6 µM
- Kd (bCSE [3]; Figure 1, marked "our data", read-out: KD (bCSE)): 1.1 ± 0.3 µM

- MIC with Km (B. subtilis) (B. subtilis 168 strain [4]): 100 µM
Compound: Nc1csc(Cn2ccc3ccc(Br)cc32)c1 [MNS1]
- CC50 at 72 h (MTT test, cytotoxicity): 30 µM
- MIC with Gm (B. subtilis) (B. subtilis 168 strain [5]): ~50 µM
- Kd (bCSE [3]; Figure 1, read-out: KD (bCSE)): 0.59 ± 0.04 µM
- Kd (bCSE [3]; introduction, read-out: binding constant with CGL): ~0.6 µM
- Kd (hCSE [6]): 11.6 ± 0.1 µM

Compound: Nc1cc(Cn2cc3ccc(Br)cc3n2)sc1C(=O)[O-].[K+] [MNS4, Potassium 3-Amino-5-((6-bromo-2H-indazol-2-yl)methyl)thiophene-2-carboxylate]
- MIC with Gm (B. subtilis) (B. subtilis 168 strain [7]): ~60 µM
- MIC with Km (B. subtilis) (B. subtilis 168 strain [4]): 70 µM
- CC50 at 72 h (MTT test, cytotoxicity): 87 µM
- cytotoxicity in HEK273T (HEK273T): moderate cytotoxicity

Compound: Nc1cc(Cn2ncc3ccc(Br)cc32)sc1C(=O)[O-].[K+] [MNS3, Potassium 3-Amino-5-((6-bromo-1H-indazol-1-yl)methyl)thiophene-2-carboxylate]
- MIC with Gm (B. subtilis) (B. subtilis 168 strain [7]): ~90 µM
- MIC with Km (B. subtilis) (B. subtilis 168 strain [4]): 90 µM
- rate of hydrogen sulfide generation compared to the control group of cells [8]: enhanced
- CC50 at 72 h (MTT test, cytotoxicity): 190 µM
- cytotoxicity in HEK273T (HEK273T): moderate cytotoxicity

Compound: Cc1oc(Cn2cc3ccc(Br)cc3n2)cc1C(=O)O [MNS6, 5-((6-Bromo-2H-indazol-2-yl)methyl)-2-methylfuran-3-Carboxylic Acid]
- rate of hydrogen sulfide generation compared to the control group of cells [8]: significantly reduced
- CC50 at 72 h (MTT test, cytotoxicity): 260 µM

Compound: Nc1cc(Cn2ccc3ccc(Br)cc32)sc1C(=O)[O-].[K+] [MNS2, Potassium 3-Amino-5-((6-bromo-1H-indol-1-yl)methyl)thiophene-2-carboxylate]
- inhibition of B. subtilis growth in combinations with gentamicin (B. subtilis 168 strain [7]; concentration range from 50 to 100 µM): failed to inhibit
- rate of hydrogen sulfide generation compared to the control group of cells [8]: enhanced
- CC50 at 72 h (MTT test, cytotoxicity): 25 µM

Compound: O=C(O)CNC(=O)Cn1ccc2ccc(Br)cc21 [NL1]
- IC50 (bCSE [1]): 5.8 ± 2.7 µM
- IC50 (hCSE [2]): 29.2 ± 2 µM

Compound: O=C(O)c1cc(Cn2ccc3ccc(-c4cc5cccc(Cl)c5s4)cc32)n[nH]1 [NL3]
- IC50 (bCSE [1]): 0.7 ± 0.2 µM
- IC50 (hCSE [2]): 3.4 ± 0.8 µM

- MIC (B. subtilis cells; Bacillus subtilis, 37 °C, 24 h, read-out: MIC of gentamicin for B. subtilis cells): 1 µg/mL
Compound: CNC(C)C1CCC(N)C(OC2C(N)CC(N)C(OC3OCC(C)(O)C(NC)C3O)C2O)O1 (stereo not shown) [gentamicin]

- MIC with Gm (B. subtilis) (B. subtilis 168 strain [7]): ~60 µM
- MIC with Km (B. subtilis) (B. subtilis 168 strain [4]): 100 µM
Compound: Cc1oc(Cn2ncc3ccc(Br)cc32)cc1C(=O)O [MNS5, 5-((6-Bromo-1H-indazol-1-yl)methyl)-2-methylfuran-3-carboxylic Acid]
- rate of hydrogen sulfide generation compared to the control group of cells [8]: significantly reduced
- CC50 at 72 h (MTT test, cytotoxicity): 250 µM

Compound: kanamycin A
- MIC of kanamycin A for B. subtilis cells (B. subtilis cells): 2 µg/mL

Compound: O=C(O)c1ccc(Cn2ccc3ccc(Br)cc32)cc1 [3h]
- Kd (bCSE [3]; Figure 1, read-out: KD (bCSE)): 0.8 ± 0.3 µM
